Source: US20220048893A1, “Compounds for Treating Neurodegenerative Diseases and Cancers” (Hongyi & Associates LLC, priority 2019, published 2022)

Experiment: In vivo PK study, oral, plasma and brain
Set-up: species or system Sprague Dawley rats; AUC(0-t) / AUC(0-inf): concentration or dose not given beside the values
Conditions: for brain permeability compared to Nilotinib and Imatinib: in vivo PK studies; for Kp / AUC(0-inf) / AUC(0-t) / Cmax / Tmax / half-life: rat, oral, Sprague Dawley rats; for Kp: brain and plasma, read-out: AUC(0-t) Brain/ AUC(0-t) plasma
Method: In the PK profiling study, Compounds 1 and 2 were administered orally to three Sprague Dawley rats. The animals were fasted overnight before drug administration. The food supply were resumed 4 hrs post dose. Blood samples were collected at 8 time points after dose: 0.25 h, 0.5 h, 1 h, 2 h, 4 h, 6 h, 8 h and 24 h. There are three samples for each time point. Brain tissues were collected after 24 hour blood sample collection. Drug concentrations in blood and brain were analyzed by LC-MS/MS. The analytical results were confirmed using quality control samples for intra-assay variation. The accuracy of >66.7% of the quality control samples should be between 80-120% of the known values. Standard set of parameters including area under the curve (AUC(0-t) and AUC(0-∞)), elimination half-life (T1/2), maximum plasma concentration (Cmax), time to reach maximum plasma concentration (Tmax) were calculated using noncompartmental analysis modules in FDA certified pharmacokinetic program Phoenix WinNonlin 7.0 (Pharsight, USA). The ratio of brain to plasma concentration were calculated by the concentration in brain tissue versus the concentration in plasma.

| brain permeability compared to Nilotinib and Imatinib | Kp | AUC(0-inf) (Brain) [µg·h/mL] | AUC(0-t) (Brain) [µg·h/mL] | Cmax (Brain) [µg/mL] | Tmax (Brain) [h] | half-life (Brain) [h] | AUC(0-inf) (Plasma) [µg·h/mL] | AUC(0-t) (Plasma) [µg·h/mL] | Cmax (Plasma) [µg/mL] | Tmax (Plasma) [h] | half-life (Plasma) [h] | Compound |
| --- | --- | --- | --- | --- | --- | --- | --- | --- | --- | --- | --- | --- |
| much improved brain permeability | 0.121 | 8.74 | 7.72 | 0.557 | 6 | 7.1 | 65.4 | 64 | 6.68 | 4 | 3.98 | Cc1ccc(C(=O)Nc2ccc(CC(C)N(C)C)cc2)cc1Nc1ccnc(-c2cccnc2)n1 (stereo not drawn) [Compound 1, N-(4-(2-(dimethylamino)propyl)phenyl)-4-methyl-3-((2-(pyridin-3-yl)pyrimidin-4-yl)amino)benzamide] |
| much improved brain permeability | 0.142 | 25.6 | 13.1 | 0.796 | 6 | 20.2 | 219 | 92 | 5.38 | 6 | 26.8 | Cc1ccc(C(=O)Nc2ccc(C3CCN(C)CC3)cc2)cc1Nc1ccnc(-c2cccnc2)n1 [Compound 2, 4-methyl-N-(4-(1-methylpiperidin-4-yl)phenyl)-3-((2-(pyridin-3-yl)pyrimidin-4-yl)amino)benzamide] |
